{
  "source": "ChEMBL document CHEMBL4354844",
  "about": "“Discovery of Balovaptan, a Vasopressin 1a Receptor Antagonist for the Treatment of Autism Spectrum Disorder” (J Med Chem, 2020)",
  "key": {"Rattus norvegicus [1]": {"tested_on": "Rattus norvegicus", "assay": "Neuroprotective activity in stress hyperresponsive Fischer F344 rat assessed as increase in perfusion in entorhinal piriform cortex at 30 mg/kg, iv administered as bolus dose via catheter by ASL-based MRI analysis", "format": "functional, organism-based"}, "[2]": {"assay": "Volume of distribution in cynomolgus monkey", "format": "ADME, Macaca fascicularis", "conditions": "in vivo"}, "[3]": {"assay": "Volume of distribution in rat", "format": "ADME", "conditions": "in vivo"}, "Rattus norvegicus [4]": {"tested_on": "Rattus norvegicus", "assay": "Neuroprotective activity in stress hyperresponsive Fischer F344 rat assessed as increase in perfusion in raphe nuclei at 30 mg/kg, iv administered as bolus dose via catheter by ASL-based MRI analysis", "format": "functional, organism-based"}, "Rattus norvegicus [5]": {"tested_on": "Rattus norvegicus", "assay": "Neuroprotective activity in stress hyperresponsive Fischer F344 rat assessed as change in perfusion in inferior colliculi at 30 mg/kg, iv administered as bolus dose via catheter by ASL-based MRI analysis", "format": "functional, organism-based"}, "Rattus norvegicus [6]": {"tested_on": "Rattus norvegicus", "assay": "Neuroprotective activity in stress hyperresponsive Fischer F344 rat assessed as change in perfusion in visual cortex at 30 mg/kg, iv administered as bolus dose via catheter by ASL-based MRI analysis relative to control", "format": "functional"}, "[7]": {"assay": "Protein binding in human plasma assessed as unbound fraction", "format": "ADME, cell-free"}, "Rattus norvegicus [8]": {"tested_on": "Rattus norvegicus", "assay": "Neuroprotective activity in stress hyperresponsive Fischer F344 rat assessed as increase in perfusion in ventral tegmental area at 30 mg/kg, iv administered as bolus dose via catheter by ASL-based MRI analysis", "format": "functional, organism-based"}, "Rattus norvegicus [9]": {"tested_on": "Rattus norvegicus", "assay": "Neuroprotective activity in stress hyperresponsive Fischer F344 rat assessed as change in perfusion in caudate putamen at 30 mg/kg, iv administered as bolus dose via catheter by ASL-based MRI analysis", "format": "functional, organism-based"}, "Rattus norvegicus [10]": {"tested_on": "Rattus norvegicus", "assay": "Neuroprotective activity in stress hyperresponsive Fischer F344 rat assessed as change in perfusion in dorsal hippocampus at 30 mg/kg, iv administered as bolus dose via catheter by ASL-based MRI analysis", "format": "functional, organism-based"}, "Rattus norvegicus [11]": {"tested_on": "Rattus norvegicus", "assay": "Neuroprotective activity in iv dosed stress hyperresponsive Fischer F344 rat assessed as improvement in neural activity pattern administered as bolus dose via catheter by ASL-based MRI analysis", "format": "functional, organism-based"}, "[12]": {"assay": "Selectivity ratio of Kb for antagonist activity at human V2 receptor to Kb for antagonist activity at human Gq5s-coupled V1a receptor expressed in CHO cells"}, "Rattus norvegicus [13]": {"tested_on": "Rattus norvegicus", "assay": "Neuroprotective activity in stress hyperresponsive Fischer F344 rat assessed as change in perfusion in medial prefrontal at 30 mg/kg, iv administered as bolus dose via catheter by ASL-based MRI analysis relative to control", "format": "functional"}, "[14]": {"assay": "Selectivity ratio of Kb for antagonist activity at human […] receptor to Kb for antagonist activity at human Gq5s-coupled V1a receptor expressed in CHO cells"}, "Rattus norvegicus [15]": {"tested_on": "Rattus norvegicus", "assay": "Neuroprotective activity in stress hyperresponsive Fischer F344 rat assessed as change in perfusion in superior colliculi at 30 mg/kg, iv administered as bolus dose via catheter by ASL-based MRI analysis", "format": "functional, organism-based"}, "[16]": {"target": "MDR1 (ABCB1, P-glycoprotein) (Homo sapiens, UniProt P08183)", "sequence (P08183 whole entry)": "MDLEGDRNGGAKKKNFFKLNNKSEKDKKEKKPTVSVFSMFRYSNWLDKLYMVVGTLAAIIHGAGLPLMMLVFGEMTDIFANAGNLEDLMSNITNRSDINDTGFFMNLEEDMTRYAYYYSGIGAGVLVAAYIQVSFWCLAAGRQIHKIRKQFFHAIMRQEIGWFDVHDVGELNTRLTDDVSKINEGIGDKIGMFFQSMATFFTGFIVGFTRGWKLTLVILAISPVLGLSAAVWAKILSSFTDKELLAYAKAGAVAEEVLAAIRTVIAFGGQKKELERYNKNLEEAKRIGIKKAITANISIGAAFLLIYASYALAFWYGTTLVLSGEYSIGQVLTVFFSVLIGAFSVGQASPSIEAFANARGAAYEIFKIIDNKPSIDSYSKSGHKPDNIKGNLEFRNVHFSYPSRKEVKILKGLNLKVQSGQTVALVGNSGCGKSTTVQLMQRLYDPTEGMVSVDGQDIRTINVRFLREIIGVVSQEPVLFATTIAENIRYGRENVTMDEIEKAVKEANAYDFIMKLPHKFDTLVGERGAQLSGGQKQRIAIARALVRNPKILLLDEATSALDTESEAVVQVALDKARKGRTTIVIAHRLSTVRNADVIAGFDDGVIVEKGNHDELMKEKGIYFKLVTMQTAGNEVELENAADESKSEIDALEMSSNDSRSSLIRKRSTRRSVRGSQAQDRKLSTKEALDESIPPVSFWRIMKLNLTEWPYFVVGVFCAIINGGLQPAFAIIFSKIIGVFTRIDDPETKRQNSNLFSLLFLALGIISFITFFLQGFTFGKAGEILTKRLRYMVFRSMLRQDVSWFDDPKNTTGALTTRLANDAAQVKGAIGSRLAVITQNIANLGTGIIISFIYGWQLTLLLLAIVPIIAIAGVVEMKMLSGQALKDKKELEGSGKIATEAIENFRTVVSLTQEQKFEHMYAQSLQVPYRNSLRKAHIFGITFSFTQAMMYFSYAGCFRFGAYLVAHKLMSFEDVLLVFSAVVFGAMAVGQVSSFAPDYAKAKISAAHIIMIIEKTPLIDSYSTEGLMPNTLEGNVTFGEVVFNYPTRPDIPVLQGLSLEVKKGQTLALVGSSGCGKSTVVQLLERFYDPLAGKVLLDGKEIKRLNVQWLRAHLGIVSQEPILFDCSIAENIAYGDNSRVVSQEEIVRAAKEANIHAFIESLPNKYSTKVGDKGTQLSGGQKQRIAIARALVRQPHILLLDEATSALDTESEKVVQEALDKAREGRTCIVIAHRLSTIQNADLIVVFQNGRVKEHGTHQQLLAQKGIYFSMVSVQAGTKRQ", "assay": "Substrate activity at human MDR1 expressed in LLC-PK1 cells assessed as efflux ratio of permeability at 1 uM measured after 3.5 hrs by lucifer yellow based scintillation counting or HPLC method", "format": "ADME, cell-based"}, "Rattus norvegicus [17]": {"tested_on": "Rattus norvegicus", "assay": "In vivo receptor occupancy at V1a receptor in stress hyperresponsive Fischer F344 rat at 30 mg/kg, iv administered as bolus dose via catheter", "format": "functional"}, "[18]": {"target": "Vasopressin V1a receptor (Homo sapiens) (UniProt P37288)", "sequence (P37288 whole entry, looked up)": "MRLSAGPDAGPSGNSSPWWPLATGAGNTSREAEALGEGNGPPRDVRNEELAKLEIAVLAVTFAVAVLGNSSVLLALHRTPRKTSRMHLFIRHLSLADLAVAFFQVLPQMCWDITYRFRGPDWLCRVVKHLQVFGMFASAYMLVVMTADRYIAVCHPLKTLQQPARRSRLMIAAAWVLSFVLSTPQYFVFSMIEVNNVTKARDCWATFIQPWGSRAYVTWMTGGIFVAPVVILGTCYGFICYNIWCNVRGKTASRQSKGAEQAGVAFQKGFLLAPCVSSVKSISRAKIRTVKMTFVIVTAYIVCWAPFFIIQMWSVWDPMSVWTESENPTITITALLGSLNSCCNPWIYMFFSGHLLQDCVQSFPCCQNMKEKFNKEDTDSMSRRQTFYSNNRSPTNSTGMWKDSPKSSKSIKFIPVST", "assay": "Antagonist activity at human Gq5s-coupled V1a receptor expressed in CHO cells assessed as inhibition of vasopressin-induced calcium flux preincubated for 20 mins followed by vasopressin addition and measured for 5 mins by fluo-4-AM dye based FLIPR assay", "format": "functional, cell-based"}, "Homo sapiens": {"species": "Homo sapiens", "assay": "Selectivity ratio of Kb for antagonist activity at recombinant human 5HT2B receptor expressed in CHOK1 cells to Kb for antagonist activity at human Gq5s-coupled V1a receptor expressed in CHO cells", "format": "cell-based"}, "[19]": {"assay": "Oral bioavailability in rat", "format": "ADME, organism-based", "conditions": "in vivo"}, "Rattus norvegicus [20]": {"tested_on": "Rattus norvegicus", "assay": "Neuroprotective activity in stress hyperresponsive Fischer F344 rat assessed as change in perfusion in primary motor cortex at 30 mg/kg, iv administered as bolus dose via catheter by ASL-based MRI analysis relative to control", "format": "functional"}, "Rattus norvegicus [21]": {"tested_on": "Rattus norvegicus", "assay": "Neuroprotective activity in stress hyperresponsive Fischer F344 rat assessed as increase in perfusion in substantia nigra at 30 mg/kg, iv administered as bolus dose via catheter by ASL-based MRI analysis", "format": "functional, organism-based"}, "[22]": {"target": "5-hydroxytryptamine receptor 2B (Homo sapiens) (UniProt P41595)", "sequence (P41595 whole entry)": "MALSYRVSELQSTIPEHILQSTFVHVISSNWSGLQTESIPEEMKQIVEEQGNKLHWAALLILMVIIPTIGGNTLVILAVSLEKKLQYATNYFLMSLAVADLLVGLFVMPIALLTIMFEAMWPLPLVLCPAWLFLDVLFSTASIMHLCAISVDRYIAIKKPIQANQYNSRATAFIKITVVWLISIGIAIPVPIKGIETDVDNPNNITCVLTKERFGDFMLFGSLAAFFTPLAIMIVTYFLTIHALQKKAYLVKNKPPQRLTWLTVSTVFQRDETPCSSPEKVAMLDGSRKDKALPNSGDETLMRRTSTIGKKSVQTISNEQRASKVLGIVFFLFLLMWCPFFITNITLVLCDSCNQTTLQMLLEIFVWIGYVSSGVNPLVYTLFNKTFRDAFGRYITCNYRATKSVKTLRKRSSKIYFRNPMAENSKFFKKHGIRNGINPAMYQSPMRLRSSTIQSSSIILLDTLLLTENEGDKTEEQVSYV", "assay": "Antagonist activity at recombinant human 5HT2B receptor expressed in CHOK1 cells assessed as inhibition of serotonin-induced inositol phosphate production measured after 30 mins by HTRF assay", "format": "functional, cell-based"}, "[23]": {"assay": "Oral bioavailability in cynomolgus monkey", "format": "ADME, organism-based, Macaca fascicularis", "conditions": "in vivo"}, "Rattus norvegicus [24]": {"tested_on": "Rattus norvegicus", "assay": "Neuroprotective activity in stress hyperresponsive Fischer F344 rat assessed as increase in perfusion in amygdala at 30 mg/kg, iv administered as bolus dose via catheter by ASL-based MRI analysis", "format": "functional, organism-based"}, "[25]": {"assay": "Volume of distribution in dog", "format": "ADME, Canis lupus familiaris", "conditions": "in vivo"}, "Rattus norvegicus [26]": {"tested_on": "Rattus norvegicus", "assay": "Neuroprotective activity in stress hyperresponsive Fischer F344 rat assessed as increase in perfusion in hypothalamus at 30 mg/kg, iv administered as bolus dose via catheter by ASL-based MRI analysis", "format": "functional, organism-based"}, "[27]": {"assay": "Half life in iv dosed rat", "format": "ADME, organism-based", "conditions": "in vivo"}, "[28]": {"assay": "Clearance in iv dosed rat relative to hepatic blood flow", "format": "ADME, organism-based", "conditions": "in vivo"}, "[29]": {"assay": "Volume of distribution at steady state in iv dosed rat", "format": "ADME, organism-based", "conditions": "in vivo, read-out: Vdss"}},
  "note": "The source made the active and inactive calls. The rule behind the calls is not given here.",
  "data": [
    {"smiles": "CN1Cc2cc(Cl)ccc2-n2c(nnc2[C@H]2CC[C@H](Oc3ccccn3)CC2)C1", "note": "[BALOVAPTAN]", "values": [
      {"measurement": "Activity", "setting": "Rattus norvegicus [1]", "value": "Active"},
      {"measurement": "Vd", "setting": "[2]", "value": "0.5 to 1.3", "unit": "L/kg"},
      {"measurement": "Vd", "setting": "[3]", "value": "0.5 to 1.3", "unit": "L/kg"},
      {"measurement": "Activity", "setting": "Rattus norvegicus [4]", "value": "Active"},
      {"measurement": "Activity", "setting": "Rattus norvegicus [5]", "value": "Active"},
      {"measurement": "Activity", "setting": "Rattus norvegicus [6]", "value": -20, "unit": "%"},
      {"measurement": "fraction unbound", "setting": "[7]", "value": 0.13},
      {"measurement": "Activity", "setting": "Rattus norvegicus [8]", "value": "Active"},
      {"measurement": "Activity", "setting": "Rattus norvegicus [9]", "value": "Active"},
      {"measurement": "Activity", "setting": "Rattus norvegicus [10]", "value": "Active"},
      {"measurement": "Activity", "setting": "Rattus norvegicus [11]", "value": "Dose-dependent effect"},
      {"measurement": "Selectivity ratio", "setting": "[12]", "value": 3888},
      {"measurement": "Activity", "setting": "Rattus norvegicus [13]", "value": -20, "unit": "%"},
      {"measurement": "Selectivity ratio", "setting": "[14]", "value": 2735},
      {"measurement": "Activity", "setting": "Rattus norvegicus [15]", "value": "Active"},
      {"measurement": "efflux ratio at 3.5 h, 1 µM", "setting": "[16]", "value": "< 2"},
      {"measurement": "Occ", "setting": "Rattus norvegicus [17]", "value": ">90", "unit": "%"},
      {"measurement": "Kb", "setting": "[18]", "value": 0.00039, "unit": "µM"},
      {"measurement": "Selectivity ratio", "setting": "Homo sapiens", "value": 938},
      {"measurement": "bioavailability", "setting": "[19]", "value": 40, "unit": "%"},
      {"measurement": "Activity", "setting": "Rattus norvegicus [20]", "value": -20, "unit": "%"},
      {"measurement": "Activity", "setting": "Rattus norvegicus [21]", "value": "Active"},
      {"measurement": "Kb", "setting": "[22]", "value": 0.366, "unit": "µM"},
      {"measurement": "bioavailability", "setting": "[23]", "value": 130, "unit": "%"},
      {"measurement": "Activity", "setting": "Rattus norvegicus [24]", "value": "Active"},
      {"measurement": "Vd", "setting": "[25]", "value": "0.5 to 1.3", "unit": "L/kg"},
      {"measurement": "Activity", "setting": "Rattus norvegicus [26]", "value": "Active"}
    ]},
    {"smiles": "CN1Cc2cc(Cl)ccc2-n2c(nnc2-c2ccc(-c3ccccc3)cc2)C1", "values": [
      {"measurement": "Activity", "setting": "Rattus norvegicus [4]", "value": "Active"},
      {"measurement": "Activity", "setting": "Rattus norvegicus [8]", "value": "Active"},
      {"measurement": "Activity", "setting": "Rattus norvegicus [11]", "value": "Dose-dependent effect"},
      {"measurement": "Selectivity ratio", "setting": "[12]", "value": 30},
      {"measurement": "Selectivity ratio", "setting": "[14]", "value": 13},
      {"measurement": "Occ", "setting": "Rattus norvegicus [17]", "value": ">90", "unit": "%"},
      {"measurement": "half-life", "setting": "[27]", "value": 1.5, "unit": "h"},
      {"measurement": "Kb", "setting": "[18]", "value": 0.012, "unit": "µM"},
      {"measurement": "pKb", "setting": "[18]", "value": 8.6},
      {"measurement": "clearance", "setting": "[28]", "value": "50 to 60", "unit": "%"},
      {"measurement": "Activity", "setting": "Rattus norvegicus [21]", "value": "Active"},
      {"measurement": "Activity", "setting": "Rattus norvegicus [26]", "value": "Active"},
      {"measurement": "Vd", "setting": "[29]", "value": "4 to 6", "unit": "L/kg"}
    ]}
  ]
}
